Measured values published in patent US20250011289A1, “1H-BENZO[B]AZEPIN-2(3H)-ONE COMPOUNDS, COMPOSITIONS AND METHODS OF TREATING CANCER” (Chengdu Anticancer Bioscience, Ltd., priority 2021, published 2025).
Read-outs that look alike come from different tables or passages of the source.

Columns and labels:
RPE-Neo or RPE-MYC cells = assay: MTT assay of cellular proliferation; format: cell-based; conditions: compounds at 20 nM to 20 μM; read-out: Min. Effective conc. for Proliferative arrest (>50%)
Procedure: Human cancer cell lines were obtained from ATCC and cultured in DMEM (Gibco, Cleveland. TN, USA) supplemented with 5% fetal bovine serum (Gibco), penicillin (100 U/mL)-streptomycin (100 μg/mL) (Gibco, Cat. No. 15140-122), 2 mM L-glutamine (Gibco, 200 mM solution, Cat. No. 25030081), and 1 mM sodium pyruvate (Gibco, 100 mM solution, Cat. No. 11360070) at 37° C. in a humidified incubator that was maintained at 5% CO2.
(§1) Screening was conducted as described before (Li et al. 2019). Briefly, RPE-Neo or RPE-MYC or RPE-MYC expressing an EGFP-Histone 2B fusion protein were passaged as batches of 96-well plates, 18-24 hours before exposure to the chemical compounds of the present disclosure at concentrations from 20 nM to 20 μM. At 24, 48 or 72 hours after initiation of treatment, cells were analyzed for either an arrest in mitosis or a change in DNA content by GE 1N-Cell Analyzer 2000. MTT assays of cellular proliferation were performed as previously described (Li et al. 2019).
(§2) As set forth in table 2 below, an values of greater than or equal to 1 nM and less than or equal to 1.0 μM is marked “A”; a value greater than 1.00 μM and less than or equal to 10.0 μM is marked “B”; a value greater than 10.0 μM and less than or equal to 30.0 μM is marked “C”; and a value greater than 30.0 μM and less than 1000 μM is marked “D.”

[1] = test system: RPE-Neo or RPE-MYC or RPE-MYC expressing an EGFP-Histone 2B fusion protein; assay: Phenotypic screening assay (arrest in mitosis or change in DNA content, IN-Cell Analyzer); format: cell-based; conditions: compounds at 20 nM to 20 μM, analysed 24, 48 or 72 hours after initiation of treatment
Procedure: as §1, §2

[2] = read-out: Min. Effective conc. for Along with Cell Death
[3] = read-out: Min. Effective conc. for Mitotic Arrest (>5%)
[4] = read-out: Min. Effective conc. for Polyploidy (≥5%)

SMILES | minimal effective concentration (RPE-Neo or RPE-MYC cells) [µM] | minimal effective concentration [1, 2] [µM] | minimal effective concentration [1, 3] [µM] | minimal effective concentration [1, 4] [µM]
Cc1ccc(CN2C(=O)CC(CO[C@H]3CCOC3)=C(Br)c3ccccc32)cc1F [Compound 44-6, (S)-5-bromo-1-(3-fluoro-4-methylbenzyl)-4-(((tetrahydrofuran-3-yl)oxy)methyl)-1,3-dihydro-2H-benzo[b]azepin-2-one] | 0.001 to 1 | 0.001 to 1 | 0.001 to 1 | 0.001 to 1
COCC1=C(Br)c2ccccc2N(Cc2ccc(C)c(F)c2)C(=O)C1 [Compound 42, 5-bromo-1-(3-fluoro-4-methylbenzyl)-4-(methoxymethyl)-1,3-dihydro-2H-benzo[b]azepin-2-one] | 0.001 to 1 | 0.001 to 1 | 0.001 to 1 | 0.001 to 1
Cc1ccc(CN2C(=O)CC(COCC3CCOC3)=C(Br)c3ccccc32)cc1F (stereo not drawn) [Compound 44-3] | 0.001 to 1 | 0.001 to 1 | 1 to 10 | 0.001 to 1
Cc1noc(C2=C(Br)c3ccccc3N(Cc3ccc(C)c(F)c3)C(=O)C2)n1 [Compound 18-1, 5-bromo-1-(3-fluoro-4-methylbenzyl)-4-(3-methyl-1,2,4-oxadiazol-5-yl)-1,3-dihydro-2H-benzo[b]azepin-2-one] | 0.001 to 1 | 0.001 to 1 | 0.001 to 1 | 0.001 to 1
Cc1ccc(CN2C(=O)CC(c3nnc(N)s3)=C(Cl)c3ccccc32)cc1F [Compound 15-1, 4-(5-amino-1,3,4-thiadiazol-2-yl)-5-chloro-1-(3-fluoro-4-methylbenzyl)-1,3-dihydro-2H-benzo[b]azepin-2-one] | 0.001 to 1 | 0.001 to 1 | 0.001 to 1 | 0.001 to 1
Cc1ccc(CN2C(=O)CC(c3nnc(C4CC4)o3)=C(Br)c3ccccc32)cc1F [Compound 20-3, 5-bromo-4-(5-cyclopropyl-1,3,4-oxadiazol-2-yl)-1-(3-fluoro-4-methylbenzyl)-1,3-dihydro-2H-benzo[b]azepin-2-one] | 0.001 to 1 | 0.001 to 1 | 0.001 to 1 | 0.001 to 1
C#Cc1ccc2c(c1)N(Cc1ccc(C)c(F)c1)C(=O)CC(c1nnc(C3CC3)o1)=C2Br [Compound 20-20, 5-bromo-4-(5-cyclopropyl-1,3,4-oxadiazol-2-yl)-8-ethynyl-1-(3-fluoro-4-methylbenzyl)-1,3-dihydro-2H-benzo[b]azepin-2-one] | 0.001 to 1 | 0.001 to 1 | 0.001 to 1 | 0.001 to 1
COc1ccc2c(c1)N(Cc1ccc(C)c(F)c1)C(=O)CC(c1cnco1)=C2Cl [Compound 8-5, 5-chloro-1-(3-fluoro-4-methylbenzyl)-8-methoxy-4-(oxazol-5-yl)-1,3-dihydro-2H-benzo[b]azepin-2-one] | 0.001 to 1 | 0.001 to 1 | 0.001 to 1 | 0.001 to 1
COc1ccc2c(c1)N(Cc1ccc(C)c(F)c1)C(=O)CC(c1cnco1)=C2Br [Compound 8-6, 5-bromo-1-(3-fluoro-4-methylbenzyl)-8-methoxy-4-(oxazol-5-yl)-1,3-dihydro-2H-benzo[b]azepin-2-one] | 0.001 to 1 | 0.001 to 1 | 0.001 to 1 | 0.001 to 1
Cc1cc(F)c(CN2C(=O)CC(c3nnc(C4CC4)o3)=C(Br)c3ccccc32)cc1F [Compound 20-28, 5-bromo-4-(5-cyclopropyl-1,3,4-oxadiazol-2-yl)-1-(2,5-difluoro-4-methylbenzyl)-1,3-dihydro-2H-benzo[b]azepin-2-one] | 0.001 to 1 | 0.001 to 1 | 0.001 to 1 | 0.001 to 1
COC1=C(c2nc(C)no2)CC(=O)N(Cc2ccc(C)c(F)c2)c2cc(Br)ccc21 [Compound 10-1, 8-bromo-1-(3-fluoro-4-methylbenzyl)-5-methoxy-4-(3-methyl-1,2,4-oxadiazol-5-yl)-1,3-dihydro-2H-benzo[b]azepin-2-one] | 0.001 to 1 | 0.001 to 1 | 0.001 to 1 | 0.001 to 1
Cc1nnc(C2=C(Br)c3ccc(Cl)cc3N(Cc3ccc(C)c(F)c3)C(=O)C2)o1 [Compound 20-10, 5-bromo-8-chloro-1-(3-fluoro-4-methylbenzyl)-4-(5-methyl-1,3,4-oxadiazol-2-yl)-1,3-dihydro-2H-benzo[b]azepin-2-one] | 0.001 to 1 | 0.001 to 1 | 0.001 to 1 | 0.001 to 1
Cc1nnc(C2=C(Br)c3ccccc3N(Cc3ccc(C)c(F)c3)C(=O)C2)o1 [Compound 20-2, 5-bromo-1-(3-fluoro-4-methylbenzyl)-4-(5-methyl-1,3,4-oxadiazol-2-yl)-1,3-dihydro-2H-benzo[b]azepin-2-one] | 0.001 to 1 | 0.001 to 1 | 0.001 to 1 | 0.001 to 1
Cc1ccc(CN2C(=O)CC(CO[C@@H]3CCOC3)=C(Br)c3ccccc32)cc1F [Compound 44-5, (R)-5-bromo-1-(3-fluoro-4-methylbenzyl)-4-(((tetrahydrofuran-3-yl)oxy)methyl)-1,3-dihydro-2H-benzo[b]azepin-2-one] | 0.001 to 1 | 0.001 to 1 | 0.001 to 1 | 0.001 to 1
Cc1ccc(CN2C(=O)CC(c3nnc(C4CC4)o3)=C(Br)c3ccc(OCCCN4CCOCC4)cc32)cc1F [Compound 20-23, 5-bromo-4-(5-cyclopropyl-1,3,4-oxadiazol-2-yl)-1-(3-fluoro-4-methylbenzyl)-8-(3-morpholinopropoxy)-1,3-dihydro-2H-benzo[b]azepin-2-one] | 0.001 to 1 | 0.001 to 1 | 0.001 to 1 | 0.001 to 1
Cc1ccc(S(=O)(=O)N2CCC(c3nnc(C4CC4)o3)=C(Br)c3ccccc32)cc1 [Compound 34-4, 2-(5-bromo-1-tosyl-2,3-dihydro-1H-benzo[b]azepin-4-yl)-5-cyclopropyl-1,3,4-oxadiazole] | 1 to 10 | 1 to 10 | 1 to 10 | 1 to 10
Cc1ccc(CN2C(=O)CC(c3nnc(N)s3)=C(Br)c3ccccc32)cc1F [Compound 15-2, 4-(5-amino-1,3,4-thiadiazol-2-yl)-5-bromo-1-(3-fluoro-4-methylbenzyl)-1,3-dihydro-2H-benzo[b]azepin-2-one] | 0.001 to 1 | 0.001 to 1 | 0.001 to 1 | 0.001 to 1
Cc1ccc2c(c1)N(Cc1ccc(C)c(F)c1)C(=O)CC(c1nnc(C3CC3)o1)=C2Br [Compound 20-12, 5-bromo-4-(5-cyclopropyl-1,3,4-oxadiazol-2-yl)-1-(3-fluoro-4-methylbenzyl)-8-methyl-1,3-dihydro-2H-benzo[b]azepin-2-one] | 0.001 to 1 | 0.001 to 1 | 0.001 to 1 | 0.001 to 1
COc1ccc2c(c1)N(Cc1ccc(C)c(F)c1)C(=O)CC(c1nnc(C3CC3)o1)=C2Br [Compound 20-4, 5-bromo-4-(5-cyclopropyl-1,3,4-oxadiazol-2-yl)-1-(3-fluoro-4-methylbenzyl)-8-methoxy-1,3-dihydro-2H-benzo[b]azepin-2-one] | 0.001 to 1 | 0.001 to 1 | 0.001 to 1 | 0.001 to 1
COc1ccc(CN2C(=O)CC(c3nnc(C4CC4)o3)=C(Br)c3ccccc32)cc1F [Compound 20-25, 5-bromo-4-(5-cyclopropyl-1,3,4-oxadiazol-2-yl)-1-(3-fluoro-4-methoxybenzyl)-1,3-dihydro-2H-benzo[b]azepin-2-one] | 0.001 to 1 | 0.001 to 1 | 0.001 to 1 | 0.001 to 1
Cc1ccc(CN2C(=O)CC(c3cnco3)=C(Cl)c3ccc(O)cc32)cc1F [Compound 8-7, 5-chloro-1-(3-fluoro-4-methylbenzyl)-8-hydroxy-4-(oxazol-5-yl)-1,3-dihydro-2H-benzo[b]azepin-2-one] | 0.001 to 1 | 0.001 to 1 | 0.001 to 1 | 0.001 to 1
